Test: Anticancer human tumor 997537-175-T-J1-PDC patient-derived colon adenocarcinoma cell line growth inhibition [POLQ]
Details: 997537-175-T-J1-PDC complex spheroid viability, combination with POLQ inhibitors; for IC50: curve of first compound; for viability, T/C: stronger effect = lower value
Outline: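 Three-cell-type spheroids modelling solid tumor plus stroma served as the readout system; POL inhibitors were tested individually and in combination, concentration ranges set by clinical Cmax where known.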
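Note: luminescence signal used as a surrogate for viable cells; spheroids exposed to drugs for seven days before readout.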

Structure (SMILES): CC[C@@]1(O)C(=O)OCc2c1cc1n(c2=O)Cc2cc3c(CN(C)C)c(O)ccc3nc2-1 + Nc1ccc(C#CCN(C(=O)Cc2ncc(C(F)(F)F)cc2C(F)(F)F)c2ccc(F)cc2)nn1
- IC50 (second compound 0.0316 µM): > 100 nM
- IC50 (second compound 0.1 µM): > 100 nM
- IC50 (second compound 0.316 µM): 90.8 nM
- IC50 (second compound 1 µM): > 100 nM
- IC50 (second compound 3.16 µM): > 100 nM
- IC50 (second compound 10 µM): > 100 nM
- viability, T/C (second compound 0.0316 µM, first compound 0.000316 µM): 104%
- viability, T/C (second compound 0.0316 µM, first compound 0.001 µM): 94.6%
- viability, T/C (second compound 0.0316 µM, first compound 0.00316 µM): 104%
- viability, T/C (second compound 0.0316 µM, first compound 0.01 µM): 111%
- viability, T/C (second compound 0.0316 µM, first compound 0.0316 µM): 94.7%
- viability, T/C (second compound 0.0316 µM, first compound 0.1 µM): 66.3%
- viability, T/C (second compound 0.1 µM, first compound 0.000316 µM): 101%
- viability, T/C (second compound 0.1 µM, first compound 0.001 µM): 91%
- viability, T/C (second compound 0.1 µM, first compound 0.00316 µM): 101%
- viability, T/C (second compound 0.1 µM, first compound 0.01 µM): 103%
- viability, T/C (second compound 0.1 µM, first compound 0.0316 µM): 83.2%
- viability, T/C (second compound 0.1 µM, first compound 0.1 µM): 58.3%
- viability, T/C (second compound 0.316 µM, first compound 0.000316 µM): 104%
- viability, T/C (second compound 0.316 µM, first compound 0.001 µM): 90.9%
- viability, T/C (second compound 0.316 µM, first compound 0.00316 µM): 107%
- viability, T/C (second compound 0.316 µM, first compound 0.01 µM): 101%
- viability, T/C (second compound 0.316 µM, first compound 0.0316 µM): 77.3%
- viability, T/C (second compound 0.316 µM, first compound 0.1 µM): 47.5%
- viability, T/C (second compound 1 µM, first compound 0.000316 µM): 93.3%
- viability, T/C (second compound 1 µM, first compound 0.001 µM): 89.8%
- viability, T/C (second compound 1 µM, first compound 0.00316 µM): 102%
- viability, T/C (second compound 1 µM, first compound 0.01 µM): 101%
- viability, T/C (second compound 1 µM, first compound 0.0316 µM): 83.9%
- viability, T/C (second compound 1 µM, first compound 0.1 µM): 57.2%
- viability, T/C (second compound 3.16 µM, first compound 0.000316 µM): 95.7%
- viability, T/C (second compound 3.16 µM, first compound 0.001 µM): 98.2%
- viability, T/C (second compound 3.16 µM, first compound 0.00316 µM): 107%
- viability, T/C (second compound 3.16 µM, first compound 0.01 µM): 100%
- viability, T/C (second compound 3.16 µM, first compound 0.0316 µM): 79%
- viability, T/C (second compound 3.16 µM, first compound 0.1 µM): 60.6%
- viability, T/C (second compound 10 µM, first compound 0.000316 µM): 96.7%
- viability, T/C (second compound 10 µM, first compound 0.001 µM): 99.4%
- viability, T/C (second compound 10 µM, first compound 0.00316 µM): 116%
- viability, T/C (second compound 10 µM, first compound 0.01 µM): 107%
- viability, T/C (second compound 10 µM, first compound 0.0316 µM): 81.3%
- viability, T/C (second compound 10 µM, first compound 0.1 µM): 58.5%
